#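 Method: 48-hour compound exposure of cells in 96-well plates, five concentrations, linear interpolation of endpoints. GI50 marks 50% less growth.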 Activity calls are given as the source filed them. Cut-off read from the data, not from the text of the source: active = GI50 up to about 1.1 µM and inactive = higher.
# How the values were obtained:
# Assay in all cases: NCI-60 cell line screen, 48 h
# IGROV-1 = system: IGROV-1
# KM-20L2 = system: KM-20L2
# SK-OV-3 = system: SK-OV-3
# COLO 205 = system: COLO 205
# DLD-1 = system: DLD-1
# ACHN = system: ACHN
# OVCAR-3 = system: OVCAR-3
# LOX IMVI = system: LOX IMVI
# LXFL 529 = system: LXFL 529
# HCT-116 = system: HCT-116
# SK-MEL-5 = system: SK-MEL-5
# UACC-257 = system: UACC-257
# HCT-15 = system: HCT-15
# M19-MEL = system: M19-MEL
# SNB-19 = system: SNB-19
# KM12 = system: KM12
# OVCAR-5 = system: OVCAR-5
# NCI-H226 = system: NCI-H226
# NCI-H460 = system: NCI-H460
# MOLT-4 = system: MOLT-4
# SNB-75 = system: SNB-75
# TK-10 = system: TK-10
# SF-539 = system: SF-539
# NCI-H522 = system: NCI-H522
# SNB-78 = system: SNB-78
# SF-268 = system: SF-268
# CCRF-CEM = system: CCRF-CEM
# Malme-3M = system: Malme-3M
# UO-31 = system: UO-31
# UACC-62 = system: UACC-62
# K562 = system: K562
# OVCAR-8 = system: OVCAR-8
# HL-60 = system: HL-60
# A549 = system: A549
# SK-MEL-28 = system: SK-MEL-28
# DMS-273 = system: DMS-273
# M14 = system: M14
# SN12C = system: SN12C
# SK-MEL-2 = system: SK-MEL-2
# HCC 2998 = system: HCC 2998
# NCI-H23 = system: NCI-H23
# DMS-114 = system: DMS-114
# SF-295 = system: SF-295
# HT-29 = system: HT-29
# RPMI-8226 = system: RPMI-8226
# EKVX = system: EKVX
# U-251 = system: U-251
# CAKI-1 = system: CAKI-1
# 786-0 = system: 786-0
# SW-620 = system: SW-620
# A498 = system: A498
# HOP-62 = system: HOP-62
# RXF 393 = system: RXF 393
# XF498 = system: XF498
# OVCAR-4 = system: OVCAR-4
# HOP-92 = system: HOP-92
structure (smiles),measurement,setting,value
COC(=O)c1cc(C)n(NC(=O)OC(C)(C)C)c1C,GI50,IGROV-1,> 100 µM (inactive)
same,GI50,KM-20L2,> 100 µM (inactive)
same,GI50,SK-OV-3,> 100 µM (inactive)
same,GI50,COLO 205,> 100 µM (inactive)
same,GI50,DLD-1,> 100 µM (inactive)
same,GI50,ACHN,> 100 µM (inactive)
same,GI50,OVCAR-3,> 100 µM (inactive)
same,GI50,LOX IMVI,> 100 µM (inactive)
same,GI50,LXFL 529,> 100 µM (inactive)
same,GI50,HCT-116,> 100 µM (inactive)
same,GI50,SK-MEL-5,> 100 µM (inactive)
same,GI50,UACC-257,> 100 µM (inactive)
same,GI50,HCT-15,> 100 µM
same,GI50,M19-MEL,> 100 µM (inactive)
same,GI50,SNB-19,> 100 µM (inactive)
same,GI50,KM12,> 100 µM (inactive)
same,GI50,OVCAR-5,> 100 µM (inactive)
same,GI50,NCI-H226,> 100 µM (inactive)
same,GI50,NCI-H460,> 100 µM (inactive)
same,GI50,MOLT-4,> 100 µM (inactive)
same,GI50,SNB-75,> 100 µM (inactive)
same,GI50,TK-10,> 100 µM (inactive)
same,GI50,SF-539,> 100 µM (inactive)
same,GI50,NCI-H522,> 100 µM (inactive)
same,GI50,SNB-78,95.1 µM (inactive)
same,GI50,SF-268,> 100 µM (inactive)
same,GI50,CCRF-CEM,> 100 µM (inactive)
same,GI50,Malme-3M,> 100 µM (inactive)
same,GI50,UO-31,> 100 µM (inactive)
same,GI50,UACC-62,> 100 µM (inactive)
same,GI50,K562,> 100 µM (inactive)
same,GI50,OVCAR-8,> 100 µM (inactive)
same,GI50,HL-60,> 100 µM (inactive)
same,GI50,A549,> 100 µM (inactive)
same,GI50,SK-MEL-28,> 100 µM (inactive)
same,GI50,DMS-273,> 100 µM (inactive)
same,GI50,M14,> 100 µM (inactive)
same,GI50,SN12C,> 100 µM (inactive)
same,GI50,SK-MEL-2,> 100 µM (inactive)
same,GI50,HCC 2998,> 100 µM (inactive)
same,GI50,NCI-H23,> 100 µM (inactive)
same,GI50,DMS-114,> 100 µM (inactive)
same,GI50,SF-295,> 100 µM (inactive)
same,GI50,HT-29,> 100 µM (inactive)
same,GI50,RPMI-8226,> 100 µM (inactive)
same,GI50,EKVX,> 100 µM (inactive)
same,GI50,U-251,> 100 µM (inactive)
same,GI50,CAKI-1,> 100 µM (inactive)
same,GI50,786-0,> 100 µM (inactive)
same,GI50,SW-620,> 100 µM (inactive)
same,GI50,A498,> 100 µM (inactive)
same,GI50,HOP-62,> 100 µM (inactive)
same,GI50,RXF 393,> 100 µM (inactive)
CCCCCN(CCCCC)C(=O)[C@@H](CCC(=O)O)NC(=O)c1cc2ccccc2[nH]1,GI50,IGROV-1,44 µM (inactive)
same,GI50,KM-20L2,40.5 µM (inactive)
same,GI50,SK-OV-3,65.2 µM (inactive)
same,GI50,COLO 205,30.9 µM (inactive)
same,GI50,XF498,26 µM (inactive)
same,GI50,DLD-1,31.5 µM (inactive)
same,GI50,ACHN,30.5 µM (inactive)
same,GI50,OVCAR-3,33.9 µM (inactive)
same,GI50,LOX IMVI,59.3 µM (inactive)
same,GI50,LXFL 529,41.7 µM (inactive)
same,GI50,HCT-116,17.9 µM (inactive)
same,GI50,UACC-257,49.4 µM (inactive)
same,GI50,HCT-15,37.7 µM
same,GI50,M19-MEL,22.3 µM (inactive)
same,GI50,SNB-19,34.9 µM (inactive)
same,GI50,KM12,39.3 µM (inactive)
same,GI50,OVCAR-5,> 100 µM (inactive)
same,GI50,NCI-H226,37.3 µM (inactive)
same,GI50,OVCAR-4,44 µM (inactive)
same,GI50,NCI-H460,34.4 µM (inactive)
same,GI50,MOLT-4,21.5 µM (inactive)
same,GI50,SNB-75,12.3 µM (inactive)
same,GI50,TK-10,46.6 µM (inactive)
same,GI50,SF-539,22.3 µM (inactive)
same,GI50,NCI-H522,13.5 µM (inactive)
same,GI50,SNB-78,59.6 µM (inactive)
same,GI50,SF-268,24.5 µM (inactive)
same,GI50,CCRF-CEM,22.8 µM (inactive)
same,GI50,Malme-3M,35.4 µM (inactive)
same,GI50,UO-31,21.4 µM (inactive)
same,GI50,UACC-62,20.7 µM (inactive)
same,GI50,HOP-92,25.6 µM (inactive)
same,GI50,K562,36.5 µM (inactive)
same,GI50,OVCAR-8,52.8 µM (inactive)
same,GI50,HL-60,24.1 µM (inactive)
same,GI50,A549,39.3 µM (inactive)
same,GI50,SK-MEL-28,21.4 µM (inactive)
same,GI50,DMS-273,32.1 µM (inactive)
same,GI50,M14,23.2 µM (inactive)
same,GI50,SN12C,43.4 µM (inactive)
same,GI50,SK-MEL-2,27.7 µM (inactive)
same,GI50,HCC 2998,34 µM (inactive)
same,GI50,NCI-H23,22.8 µM (inactive)
same,GI50,DMS-114,33 µM (inactive)
same,GI50,SF-295,33.9 µM (inactive)
same,GI50,HT-29,46.6 µM (inactive)
same,GI50,RPMI-8226,16 µM (inactive)
same,GI50,EKVX,48.1 µM (inactive)
same,GI50,U-251,29.1 µM (inactive)
same,GI50,CAKI-1,25.1 µM (inactive)
same,GI50,786-0,46.5 µM (inactive)
same,GI50,SW-620,63.1 µM (inactive)
same,GI50,A498,> 100 µM (inactive)
same,GI50,HOP-62,32.2 µM (inactive)
same,GI50,RXF 393,1.99 µM (inactive)
